The text below walks through data of patent US20010006667A1, “USE AND COMPOSITION OF AN ANTI-SEXUALLY TRANSMITTED DISEASES FORMULATION” (priority 1994, published 2001).

The subject of the assay is HIV LAV1 BRU retrovirus clone. In words: Syncytia formation in HT4LacZ cells infected with an HIV viral suspension pre-mixed with test substance. Type of assay: cell-based. How it is done: The formulations were prepared according to the description discussed above, except that the F-Po was prepared with about 2% polycarbophil, no N-9 and about a 1% concentration of Carbomer 934P, rather than 0.5%, and the difference (2%) was made up with additional water.
A viral blank was used as control, and AZT was used for a positive control. Each formulation was set up as an aqueous suspension of a particular concentration. 500 μl. aliquots of viral suspension were separately mixed with 50 ,μl. of each of the test solutions. After 30 minutes, 55 μl. of each of these mixtures were tested directly on HT4LacZ cells in a well also containing DEAE dextran. During the culturing period, the virus supplies the tat gene missing in HT4LacZ cells, leading to LacZ gene transactivation coding for β-galactosidase, indicated by a histochemical coloration. After 72 hours of culturing, infection is stopped by addition of a fixator for ten minutes. After two PBS washes, the colorant is added for ninety minutes. After syncytia (giant multi-nucleated cells, formed by many cells fusing together when infected with HIV) outbreak, the colorant is replaced with water. Observation is performed with an optical microscope, yielding the following results in Table 1: […]

As to nonoxynol-9 [N-9], the “viral infection remaining, % of that exhibited by the HIV viral suspension (FIG. 1)” value (0.1 μg/ml) amounted to 72%. Moreover, under “1 μg/ml”, the “viral infection remaining, % of that exhibited by the HIV viral suspension (FIG. 1)” value amounted to 36%. Also, under “final conc. 0.10 μg/ml”, the “Avg. # Syncytia per well” value amounted to 11.5, the “Percent Reduction (of syncytia vs viral reference)” value (shortened to “Percent Reduction”) came out at 28% and the “Total # Syncytia” value stood at 46. Under “final conc. 1.0 μg/ml”, the “Avg. # Syncytia per well” value is 5.75, the “Percent Reduction” value is 64% and the “Total # Syncytia” value was determined as 23.
Consider `Cc1cn([C@H]2C[C@H](N=[N+]=[N-])[C@@H](CO)O2)c(=O)[nH]c1=O` [AZT], for which, where the note is “final conc. 10^−5M”, the “Avg. # Syncytia per well” value stood at 0, the “Percent Reduction” value is reported as 100% and the “Total # Syncytia” value is given as 0.
